Data reported in patent US12202790B2, “Sulfonamide derivatives having selective Nox inhibiting activity” (GLUCOX BIOTECH AB, priority 2018, dated 2025).

Experiments:
Type in all cases: cell-based
[1] = target: Nox3 (Homo sapiens (Human), UniProt Q9HBY0); experiment: Amplex Red assay of Nox3 expressing HEK cells; set-up: key: The sign “—” stands for “inactive”
From the text: HEK293 overexpressing Nox4 (CJ Nox4) cells were purchased from Redoxis, Lund, Sweden. HEK 293 cells expressing Nox5, Nox3 (HEK TRex) and CHO cells expressing Nox1, were a kind gift from Vincent Jaque Center Medical Universitaire, Geneva, Switzerland. Nox2 expressed in isolated neutrophils were isolated from whole blood (human), as previously described (Anvari E, et al., Free Radic Res 2015; 49:1308-1318).
HEK293T cells expressing tetracycline-inducible human (Nox3 or Nox4) and HEK293 cells stably expressing human Nox5 were generated as described previously (Serrander et al., 2007a,b). HEK cells were cultured in Dulbecco's modified Eagle medium (DMEM) with 4.5 g/l glucose, supplemented with FBS (10%), penicillin (100 U/ml) and streptomycin […] at 37° C. in air with 5% CO2.
Reactive oxygen produced in whole cells or in membrane preparation of Nox1, Nox3, Nox4, Nox5 and xanthine oxidase and glucose oxidase were determined using Amplex Red as detection probe of formed H2O2. Amplex Red (10-acetyl-3,7-dihydroxyphenoxazine) in combination with HRP and co-factors reacts with H2O2 in a 1:1 stoichiometry to form a highly fluorescent resorufin excitated at 544 nm producing emission at 590 nm.
Adherent cells (CHO, HEK) were collected by trypsinization, centrifuged, washed with HBSS, counted, and resuspended in HBSS. Cells were seeded in 96-well black flat bottom plates at a density of 50,000-100,000 cells/well. All compounds were dissolved in DMSO and concentrations ranging from 0.003 to 200 μM were tested in Nox cellular assays with a final concentration of DMSO of 1%. Cells were incubated at 37° C. with the compounds for 30 minutes before measurement. Cells expressing Nox1 and Nox2 were activated with the PKC activator PMA (0.1 μM). […] Production of hydrogen peroxide by Nox in intact cells was measured using Amplex Red fluorescence as described by Jaquet V, et al., Br J Pharmacol 2011; 164:507-520. […] Fluorescence was read in a fluorescence plate reader at 37° C. every minute between 30-60 minutes.

[2] = target: Nox4 expressing HEK293 cells (Homo sapiens (Human), UniProt Q9NPH5); experiment: Oxygen consumption in Nox4 expressing HEK293 cells
Chain of Nox4 expressing HEK293 cells (Q9NPH5 whole entry): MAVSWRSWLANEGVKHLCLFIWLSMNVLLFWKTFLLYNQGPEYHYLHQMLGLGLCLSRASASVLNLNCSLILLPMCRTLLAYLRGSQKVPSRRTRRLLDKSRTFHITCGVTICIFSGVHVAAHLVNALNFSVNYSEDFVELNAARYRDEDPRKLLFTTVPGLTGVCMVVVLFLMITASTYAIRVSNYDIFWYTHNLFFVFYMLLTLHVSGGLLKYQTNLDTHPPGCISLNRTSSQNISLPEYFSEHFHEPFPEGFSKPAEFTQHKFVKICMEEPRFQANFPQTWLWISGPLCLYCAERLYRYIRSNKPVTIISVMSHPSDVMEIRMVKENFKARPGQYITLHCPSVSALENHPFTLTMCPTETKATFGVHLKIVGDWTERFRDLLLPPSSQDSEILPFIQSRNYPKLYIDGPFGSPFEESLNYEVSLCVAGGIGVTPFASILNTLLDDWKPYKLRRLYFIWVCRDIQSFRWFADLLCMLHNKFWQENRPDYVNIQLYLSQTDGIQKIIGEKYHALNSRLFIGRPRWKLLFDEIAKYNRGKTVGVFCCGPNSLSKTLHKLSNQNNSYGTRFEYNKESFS
Chain of Nox4 expressing HEK293 cells (P13498 2-195 partner): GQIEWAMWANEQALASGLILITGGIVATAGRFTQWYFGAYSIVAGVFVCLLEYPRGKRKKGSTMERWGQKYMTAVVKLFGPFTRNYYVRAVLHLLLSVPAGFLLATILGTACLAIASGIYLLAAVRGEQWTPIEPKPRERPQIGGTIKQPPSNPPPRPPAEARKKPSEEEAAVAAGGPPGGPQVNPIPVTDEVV

[3] = system: Hippocampal brain slices; experiment: In vitro stroke model: hippocampal brain slices subjected to hypoxia and glucose deprivation; conditions: hypoxia and glucose deprivation 5 hours, viability after 24 hours of culture
Protocol: FIG. 4 is a bar chart showing cell viability (in % of basal cell viability) of hippocampal brain slices subjected to hypoxia and starvation for 5 h and then cultured for 24 h in the absence (OGD) or presence of Example 11 at a concentration of 0.3 μM, 3 μM, or 10 μM. Basal=no hypoxia or starvation, cells cultured in the presence of culture medium only. OGD=5 h of hypoxia or starvation, cells cultured in the presence of culture medium only.
FIG. 5 is a bar chart showing cell viability (in % of basal cell viability) of hippocampal brain slices subjected to hypoxia and starvation for 5 h and then cultured for 24 h in the absence (OGD) or presence of Example 17 at a concentration of 0.3, 3 or 10 μM. Basal=no hypoxia or starvation, cells cultured in the presence of culture medium only. OGD=5 h of hypoxia or starvation, cells cultured in the presence of culture medium only.
Hippocampal brain slices and human brain micro-vascular endothelial cells were subjected to hypoxia and glucose deprivation (starvation) for 5 hours and were tested for viability after 24 hours of culture in the presence of Example 11 or Example 17 at different concentrations. Additionally, human brain micro-vascular endothelial cells were subjected to hypoxia and glucose deprivation (starvation) for 6 hours and were tested for viability after 24 hours of culture in the presence of Example 44 at various concentrations.

[4] = system: rat lens epithelial explants; experiment: qRT-PCR gene expression analysis in TGFβ-treated rat lens epithelial explants; conditions: 48 hours of culture, Example 11 2.4 μM, Example 17 0.3 μM; for aSMA expression (mRNA): Example 17 at a higher degree than Example 11
Protocol: (§1) Lens epithelial explants were prepared as previously described (Wang Q, et al., Investigative ophthalmology & visual science. 2010; 51(7):3599-610) and cultured in Medium 199 (M199) with Earle's salts (Life Technologies, USA), supplemented with 50 μg/mL L-glutamine, 50 IU/mL penicillin/50 μg/mL streptomycin (Thermo Scientific, USA), 2.5 μg/mL Amphostat B (Thermo Scientific, USA) and 0.1% bovine serum albumin (BSA) (Sigma, USA). M199 was equilibrated at 37° C., 5% CO2. To induce EMT, recombinant TGF-β2 was added to media in each culture dish at a working concentration of […] (R&D Systems, USA). Prior to the addition of TGF-β2, some explants were pre-treated for 30 minutes with Example 11 or Example 17, at working concentrations of 2.4 μM and 0.3 μM, respectively. The progression of EMT in live cells was observed and captured using phase-contrast microscopy (Olympus CK2, Japan) and a digital camera (Leica DFC-280, Germany). Percentage cell loss quantification was performed using the thresholding function of ImageJ (NIH), such that cells could be distinguished from bare lens capsule.
Quantitative RT-PCR (qRT-PCR) gene expression analysis was performed as previously described (Shu D, et al., Investigative ophthalmology & visual science. 2017; 58(2):781-96.).
For data analysis, the 2^-ΔΔCt method was used to estimate the relative fold change in gene expression. Using the 2^-ΔΔCt method, the gene of interest was quantified relative to, firstly, the housekeeping gene, GAPDH and, secondly, to relative gene expression in untreated explants.

[5] = system: rat lens epithelial explants; experiment: TGFβ-induced lens epithelial to mesenchymal transition (EMT) in rat lens epithelial explants; conditions: co-treatment with TGFβ, Example 11 2.4 μM, Example 17 0.3 μM; for progression of TGFβ-induced EMT: 5 days culture
Protocol: Ocular tissues were collected from postnatal-day-21 albino Wistar rats (Rattus norvegicus) that were sacrificed by asphyxiation and subsequent cervical dislocation.
as §1

Chain of Nox3 (Q9HBY0 whole entry): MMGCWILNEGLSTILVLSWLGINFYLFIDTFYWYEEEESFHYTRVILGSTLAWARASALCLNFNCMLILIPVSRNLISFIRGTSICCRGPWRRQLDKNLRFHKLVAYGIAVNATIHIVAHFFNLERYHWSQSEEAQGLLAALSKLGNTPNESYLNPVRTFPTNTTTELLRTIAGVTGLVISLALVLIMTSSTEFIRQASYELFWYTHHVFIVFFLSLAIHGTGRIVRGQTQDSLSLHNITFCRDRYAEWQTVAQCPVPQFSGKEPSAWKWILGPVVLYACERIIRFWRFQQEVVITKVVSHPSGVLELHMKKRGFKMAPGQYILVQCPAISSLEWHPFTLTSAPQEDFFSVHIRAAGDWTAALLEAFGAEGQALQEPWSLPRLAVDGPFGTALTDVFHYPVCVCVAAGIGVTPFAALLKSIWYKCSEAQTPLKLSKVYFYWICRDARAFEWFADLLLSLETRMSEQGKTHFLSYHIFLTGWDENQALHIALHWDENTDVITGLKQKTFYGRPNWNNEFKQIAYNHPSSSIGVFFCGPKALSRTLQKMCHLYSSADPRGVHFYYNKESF
Chain of Nox3 (P13498 2-195 partner): as the sequence (P13498 2-195 partner) above

| Compound | IC50 Nox3 [1] | Inhibition of oxygen consumption in Nox4 expressing HEK293 cells [2] | neuroprotective effect (cell viability) [3] | TGFβ-driven upregulation of Col1A and Fn (mRNA) [4] | aSMA expression (mRNA) [4] | progression of TGFβ-induced EMT [5] | morphology of remaining cells by day 5 [5] |
| --- | --- | --- | --- | --- | --- | --- | --- |
| O=S(=O)(NCCc1ccccc1Cl)c1c(Cl)cc(C2CC2)cc1Cl [Example 26, 2,6-dichloro-N-[2-(2-chlorophenyl)ethyl]-4-cyclopropylbenzene-1-sulfonamide] | — | yes |  |  |  |  |  |
| Cc1ccccc1CCNS(=O)(=O)c1c(Cl)cc(Br)cc1Cl [Example 17, 4-bromo-2,6-dichloro-N-[2-(2-methylphenyl)ethyl]benzene-1-sulfonamide] | — | yes | neuroprotective effect | downregulate the TGFβ-driven upregulation of Col1A and Fn | downregulate aSMA expression | appeared to delay the progression of EMT | some of the remaining cells appeared epithelial-like |
| Cc1ccccc1CCNS(=O)(=O)c1c(C)cccc1Cl [Example 11, 2-chloro-6-methyl-N-[2-(2-methylphenyl)ethyl]benzene-1-sulfonamide] | — | yes | neuroprotective effect | downregulate the TGFβ-driven upregulation of Col1A and Fn | downregulate aSMA expression | a similar effect was obtained | some of the remaining cells appeared epithelial-like |
